The values below come from US8754073B2, “Substituted piperazino-dihydrothienopyrimidines” (Boehringer Ingelheim International GmbH, priority 2007, dated 2014).

Sequence of PDE4B (Q07343 whole entry, species assumed): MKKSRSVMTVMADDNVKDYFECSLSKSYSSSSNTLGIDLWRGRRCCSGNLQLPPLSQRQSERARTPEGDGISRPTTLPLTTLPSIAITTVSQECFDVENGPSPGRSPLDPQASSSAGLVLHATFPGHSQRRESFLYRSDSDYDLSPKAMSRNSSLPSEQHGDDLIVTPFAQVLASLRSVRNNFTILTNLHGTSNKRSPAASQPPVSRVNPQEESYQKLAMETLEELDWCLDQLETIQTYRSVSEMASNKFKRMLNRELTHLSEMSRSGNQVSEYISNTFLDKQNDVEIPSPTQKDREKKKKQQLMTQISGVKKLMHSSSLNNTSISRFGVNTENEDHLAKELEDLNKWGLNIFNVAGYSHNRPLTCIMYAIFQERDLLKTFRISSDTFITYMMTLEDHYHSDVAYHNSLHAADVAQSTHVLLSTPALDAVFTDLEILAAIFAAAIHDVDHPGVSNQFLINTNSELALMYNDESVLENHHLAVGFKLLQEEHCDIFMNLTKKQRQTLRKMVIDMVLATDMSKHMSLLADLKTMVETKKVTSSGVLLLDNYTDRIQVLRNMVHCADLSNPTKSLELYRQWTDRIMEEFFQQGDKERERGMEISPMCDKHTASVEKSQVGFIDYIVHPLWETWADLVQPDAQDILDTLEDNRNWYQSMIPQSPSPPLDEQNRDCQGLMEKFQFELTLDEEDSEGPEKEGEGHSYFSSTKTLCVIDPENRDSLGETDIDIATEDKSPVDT

The first assay deals with PDE4B (Homo sapiens, UniProt Q07343). Kind of assay: Scintillation Proximity Assay (SPA) of PDE4B enzyme activity ([H3]-cAMP cleavage). The class given is biochemical. The settings on record: test substance 1 μM; one-hour incubation of [H3]-cAMP with PDE4B enzyme at 30° C. An outline of the steps:
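SPA read-out: [H3]-cAMP incubated with PDE4B in assay buffer for 1 h at 30 °C, with and without test compound at 1 μM. Reaction stopped by adding yttrium silicate beads that bind the [H3]-AMP product; after 45 min settling, scintillation counted. Value is % inhibition at 1 μM.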
The compound `O=S1(=O)CCc2nc(N3CCC(c4ccc(Cl)cc4)CC3)nc(NC3(CO)CC3)c21` [Example 333, (1-{2-[4-(4-chlorophenyl)-piperidin-1-yl]-5.5-dioxo-6,7-dihydro-5H-5λ^6-thieno[3,2-d]pyrimidin-4-ylamino}-cyclopropyl)-methanol] came in with an inhibition at 1 µM of 56%.

On to `O=S1(=O)CCc2nc(N3CCC(c4ccc(Cl)cc4)CC3)nc(NC3CCOCC3)c21` [Example 334, {2-[4-(4-chlorophenyl)-piperidin-1-yl]-5.5-dioxo-6,7-dihydro-5H-5λ^6-thieno[3,2-d]pyrimidin-4-yl}-(tetrahydropyran-4-yl)-amine], for which 1 µM produced 65% inhibition.

In the case of `CN1C[C@@H](Nc2nc(N3CCC(c4ccc(Cl)cc4)CC3)nc3c2S(=O)(=O)CC3)CCC1=O` [Example 335, 5-{2-[4-(4-chlorophenyl)-piperidin-1-yl]-5.5-dioxo-6,7-dihydro-5H-5λ^6-thieno[3,2-d]pyrimidin-4-ylamino}-1-methylpiperidin-2-one], the inhibition at 1 µM was 85%.

The same assay, now with this note: test substance 1 μM; one-hour incubation with [H3]-cAMP at 30° C.
Take `COCC(=O)N(C)CC1(c2ccccc2)CCN(c2nc3c(c(NC4CCOCC4)n2)[S+]([O-])CC3)CC1` (stereo not shown) [Example 323, 2-methoxy-N-methyl-N-{1-[5-oxo-4-(tetrahydropyran-4-ylamino)-6,7-dihydro-5H-5λ^4-thieno[3,2-d]pyrimidin-2-yl]-4-phenylpiperidin-4-ylmethyl}-acetamide]: testing at 1 µM gave an inhibition of 94%.

With `CS(=O)(=O)NCC1(c2ccccc2)CCN(c2nc3c(c(NC4(CO)CC4)n2)[S+]([O-])CC3)CC1` (stereo not shown) [Example 324], at 1 µM the inhibition was 89%.

Consider `CS(=O)(=O)NCC1(c2ccccc2)CCN(c2nc3c(c(NC4CCOCC4)n2)[S+]([O-])CC3)CC1` (stereo not shown) [Example 325], for which the inhibition at 1 µM stood at 87%.

Regarding `CC(C)[C@H](CO)Nc1nc(N2CCC(CNS(C)(=O)=O)(c3ccccc3)CC2)nc2c1[S+]([O-])CC2` (stereo partly shown) [Example 326], the inhibition at 1 µM was found to be 88%.

`CS(=O)(=O)NCC1(c2ccccc2)CCN(c2nc3c(c(Nc4cccc(F)c4)n2)[S+]([O-])CC3)CC1` (stereo not shown) [Example 327] gave an inhibition at 1 µM of 83%.

Take `[O-][S+]1CCc2nc(N3CCC(c4nc5c(o4)CCCC5)CC3)nc(NC3(CO)CC3)c21` (stereo not shown) [Example 328]: at 1 µM the inhibition was 93%.

As for `[O-][S+]1CCc2nc(N3CCC(c4nc5c(o4)CCCC5)CC3)nc(NC3CCOCC3)c21` (stereo not shown) [Example 329], testing at 1 µM gave an inhibition of 95%.

`CN(CC1(c2ccccc2)CCN(c2nc3c(c(NC4(CO)CC4)n2)[S+]([O-])CC3)CC1)S(C)(=O)=O` (stereo not shown) [Example 330]: the inhibition at 1 µM turned out to be 92%.

The compound `CC(C)[C@H](CO)Nc1nc(N2CCC(CN(C)S(C)(=O)=O)(c3ccccc3)CC2)nc2c1[S+]([O-])CC2` (stereo partly shown) [Example 331] displayed an inhibition at 1 µM of 85%.

As for `CN(CC1(c2ccccc2)CCN(c2nc3c(c(Nc4cccc(F)c4)n2)[S+]([O-])CC3)CC1)S(C)(=O)=O` (stereo not shown) [Example 332], the inhibition at 1 µM was 93%.
